Measurements from US20200181132A1, “QUINOXALINE AND PYRIDOPYRAZINE DERIVATIVES AS PI3K-BETA INHIBITORS” (JANSSEN PHARMACEUTICA NV, priority 2017, published 2020).
Where two headings read alike, the source gives them in different places.

Assays:
PIK3Cδ_h = target: T1, PIK3Cδ_h (Homo sapiens, UniProt O00329); test: Enzyme binding assay (KINOMEscan), PIK3Cδ; conditions: DiscoveRx
T1 construct: purchased DiscoveRx Corporation
T1 sequence (O00329 1-1044): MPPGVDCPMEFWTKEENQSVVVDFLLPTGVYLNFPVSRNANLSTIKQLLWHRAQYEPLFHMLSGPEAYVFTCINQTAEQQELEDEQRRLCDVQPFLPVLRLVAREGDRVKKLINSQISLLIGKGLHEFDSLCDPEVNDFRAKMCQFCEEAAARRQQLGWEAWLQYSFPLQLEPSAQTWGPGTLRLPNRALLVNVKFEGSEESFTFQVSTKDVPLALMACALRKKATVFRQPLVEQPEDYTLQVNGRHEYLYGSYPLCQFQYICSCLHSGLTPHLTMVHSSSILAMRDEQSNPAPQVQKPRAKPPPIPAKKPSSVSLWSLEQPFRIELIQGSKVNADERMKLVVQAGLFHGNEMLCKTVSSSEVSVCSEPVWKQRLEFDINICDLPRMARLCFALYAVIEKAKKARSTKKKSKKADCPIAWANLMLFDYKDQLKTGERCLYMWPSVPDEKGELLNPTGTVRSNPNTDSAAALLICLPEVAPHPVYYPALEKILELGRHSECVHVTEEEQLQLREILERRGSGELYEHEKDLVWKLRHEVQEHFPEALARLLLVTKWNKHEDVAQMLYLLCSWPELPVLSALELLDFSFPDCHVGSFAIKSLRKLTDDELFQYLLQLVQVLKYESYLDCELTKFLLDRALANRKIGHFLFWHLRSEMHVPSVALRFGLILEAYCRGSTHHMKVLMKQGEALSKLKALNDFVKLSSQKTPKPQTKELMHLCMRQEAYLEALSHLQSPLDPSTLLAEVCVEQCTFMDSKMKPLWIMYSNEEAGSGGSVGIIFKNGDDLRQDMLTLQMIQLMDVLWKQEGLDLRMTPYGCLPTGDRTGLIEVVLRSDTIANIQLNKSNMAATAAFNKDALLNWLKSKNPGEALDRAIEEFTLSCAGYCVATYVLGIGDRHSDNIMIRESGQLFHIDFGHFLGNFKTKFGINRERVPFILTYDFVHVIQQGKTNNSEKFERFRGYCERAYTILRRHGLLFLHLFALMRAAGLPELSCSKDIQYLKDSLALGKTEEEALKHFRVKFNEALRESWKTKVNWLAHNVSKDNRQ
Description: (§1) Enzyme Binding Assays (KINOMEscan®)
(§2) Kinase enzyme binding affinities of compounds disclosed herein were determined using the KINOMEscan technology performed by DiscoveRx Corporation, San Diego, Calif., USA (www.kinomescan.com). Table A reports the obtained Kd values (nM), with the Kd being the inhibitor binding constant: […]

[1] = tested on: phosphorylation of Akt at Thr308 in PC-3 cells; test: Cellular assay: phospho-Akt (Thr308) MSD ELISA in PC-3 cells; type: cell-based; conditions: 60 min incubation with compound, read-out: IC50 pAkt_Thr308
Description: (§3) Cellular activity of PI3Kβ inhibitors was determined by quantifying the phosphorylation of Akt in PC-3 cells. Akt phosphorylated at Ser473 and Thr308 were measured using an enzyme-linked immunosorbent assay (ELISA; Meso Scale Discovery (MSD), Gaithersburg, Md.) and specific primary antibodies from MSD.
(§4) On day 1, PC3 cells (ATCC # […]) were seeded into PerkinElmer MW96 plates at 25.000 cells per well, in 75 μl complete culture medium (DMEM high glucose, AQmedia™, D0819, Sigma-Aldrich) containing 10% heat inactivated FCS and incubated at 37° C., 5% CO2 during 24 hours. On day 2, compound or DMSO (0.3%) was added and cells were further incubated for 60 min at 37° C., 5% CO2 in a total volume of 100 μl of medium.
(§5) The phosphoprotein assay was executed according to vendor instructions in the Phospho-Akt (Ser473) Assay Whole Cell Lysate Kit (MSD # K15100D-3) and the Phospho-Akt (Thr308) Assay Whole Cell Lysate Kit (MSD # K151DYD-3) using the lysis, blocking and wash buffer provided.
(§6) Briefly, at the end of the cell treatment period, media were removed by aspiration and adherent cells were lysed in 50 μl ice-cold lysis buffer. MSD plates are supplied pre-coated with capture antibodies for Phospho-Akt (Ser473 and Thr308). After blocking, lysates from tissue culture plates were added and plates were washed. Then, a solution containing the detection antibody (anti-total Akt conjugated with an electrochemiluminescent compound-MSD Sulfo-tag label) was added. The signals were detected using an MSD SECTOR Imager 6000 and are proportional to the phospho-Akt titres.
(§7) Data were processed. The percentage of inhibition was plotted against the log concentration of test compounds, and the sigmoidal log concentration-effect curve of best fit was calculated by nonlinear regression analysis. From these concentration-response curves, the IC50 values were calculated. Five concentrations were used for curve fitting.

MTOR_h = target: T2, MTOR_h (Homo sapiens, UniProt P42345); test: Enzyme binding assay (KINOMEscan), MTOR; conditions: DiscoveRx
T2 construct: purchased DiscoveRx Corporation
Description: as §1, §2

PIK3Cα_h = target: T3, PIK3Cα_h (Homo sapiens, UniProt P42336); test: Enzyme binding assay (KINOMEscan), PIK3Cα; conditions: DiscoveRx
T3 construct: purchased DiscoveRx Corporation
Description: as §1, §2

[2] = tested on: phosphorylation of Akt at Ser473 in PC-3 cells; test: Cellular assay: phospho-Akt (Ser473) MSD ELISA in PC-3 cells; type: cell-based; conditions: 60 min incubation with compound, read-out: IC50 pAkt_S473
Description: as §3, §4, §5, §6, §7

PIK3Cγ_h = target: T4, PIK3Cγ_h (Homo sapiens, UniProt P48736); test: Enzyme binding assay (KINOMEscan), PIK3Cγ; conditions: DiscoveRx
T4 construct: purchased DiscoveRx Corporation
Description: as §1, §2

PIK3Cβ_h = target: T5, PIK3Cβ_h (Homo sapiens, UniProt P42338); test: Enzyme binding assay (KINOMEscan), PIK3Cβ; conditions: DiscoveRx
T5 construct: purchased DiscoveRx Corporation
Description: as §1, §2

T3 sequence (P42336 whole entry): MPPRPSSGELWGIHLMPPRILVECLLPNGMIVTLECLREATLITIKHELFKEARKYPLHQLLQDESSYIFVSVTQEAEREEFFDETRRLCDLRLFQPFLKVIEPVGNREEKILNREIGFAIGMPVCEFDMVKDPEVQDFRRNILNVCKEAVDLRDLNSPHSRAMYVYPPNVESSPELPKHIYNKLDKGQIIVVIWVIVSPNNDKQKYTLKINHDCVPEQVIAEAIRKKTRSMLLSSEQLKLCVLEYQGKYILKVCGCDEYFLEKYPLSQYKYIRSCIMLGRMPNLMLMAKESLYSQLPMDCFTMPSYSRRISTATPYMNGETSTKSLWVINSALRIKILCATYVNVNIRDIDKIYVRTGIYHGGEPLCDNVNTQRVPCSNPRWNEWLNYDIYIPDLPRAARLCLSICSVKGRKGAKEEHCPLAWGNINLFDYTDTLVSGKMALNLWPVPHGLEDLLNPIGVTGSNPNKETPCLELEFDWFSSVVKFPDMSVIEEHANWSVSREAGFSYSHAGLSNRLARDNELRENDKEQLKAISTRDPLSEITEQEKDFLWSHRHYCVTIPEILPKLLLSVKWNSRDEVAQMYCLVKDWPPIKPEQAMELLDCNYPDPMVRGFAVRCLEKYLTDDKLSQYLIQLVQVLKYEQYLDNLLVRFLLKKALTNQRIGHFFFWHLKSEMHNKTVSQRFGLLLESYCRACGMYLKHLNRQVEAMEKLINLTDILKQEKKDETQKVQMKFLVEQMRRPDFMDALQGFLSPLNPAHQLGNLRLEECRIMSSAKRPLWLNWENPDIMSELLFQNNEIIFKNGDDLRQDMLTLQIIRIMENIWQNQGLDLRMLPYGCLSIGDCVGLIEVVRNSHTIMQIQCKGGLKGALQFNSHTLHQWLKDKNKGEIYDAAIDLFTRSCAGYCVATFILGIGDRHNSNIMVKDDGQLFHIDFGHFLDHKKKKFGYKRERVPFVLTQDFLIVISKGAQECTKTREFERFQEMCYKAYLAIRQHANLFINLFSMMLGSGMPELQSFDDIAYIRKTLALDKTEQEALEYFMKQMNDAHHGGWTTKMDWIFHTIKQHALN
T5 sequence (P42338 whole entry): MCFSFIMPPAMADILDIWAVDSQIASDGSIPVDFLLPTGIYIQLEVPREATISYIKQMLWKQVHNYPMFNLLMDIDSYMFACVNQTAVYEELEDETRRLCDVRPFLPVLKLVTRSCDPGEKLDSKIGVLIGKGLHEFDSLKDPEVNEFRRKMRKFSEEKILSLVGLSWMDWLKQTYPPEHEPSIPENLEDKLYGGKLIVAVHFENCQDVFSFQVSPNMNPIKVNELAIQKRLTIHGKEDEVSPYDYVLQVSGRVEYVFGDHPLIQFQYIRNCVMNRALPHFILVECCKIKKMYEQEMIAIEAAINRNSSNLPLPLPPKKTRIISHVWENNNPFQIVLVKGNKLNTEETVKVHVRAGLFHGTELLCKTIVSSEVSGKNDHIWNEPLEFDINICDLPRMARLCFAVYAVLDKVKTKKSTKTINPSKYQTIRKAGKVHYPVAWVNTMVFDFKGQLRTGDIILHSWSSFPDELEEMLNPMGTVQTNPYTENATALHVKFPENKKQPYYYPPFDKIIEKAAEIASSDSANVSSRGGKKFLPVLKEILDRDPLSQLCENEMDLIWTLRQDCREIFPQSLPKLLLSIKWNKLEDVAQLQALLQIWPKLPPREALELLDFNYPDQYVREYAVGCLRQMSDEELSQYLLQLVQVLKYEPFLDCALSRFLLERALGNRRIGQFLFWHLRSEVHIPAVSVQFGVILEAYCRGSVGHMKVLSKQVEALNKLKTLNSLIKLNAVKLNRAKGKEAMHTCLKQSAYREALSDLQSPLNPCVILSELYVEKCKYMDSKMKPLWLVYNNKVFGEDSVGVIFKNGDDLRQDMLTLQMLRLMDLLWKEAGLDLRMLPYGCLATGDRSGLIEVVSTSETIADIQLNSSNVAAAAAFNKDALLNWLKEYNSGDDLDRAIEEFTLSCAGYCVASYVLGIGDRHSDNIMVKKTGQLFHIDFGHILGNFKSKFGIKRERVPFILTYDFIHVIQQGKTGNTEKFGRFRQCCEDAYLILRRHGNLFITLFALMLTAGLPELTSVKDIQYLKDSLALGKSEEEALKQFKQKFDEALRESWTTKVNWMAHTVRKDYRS
T4 sequence (P48736 whole entry): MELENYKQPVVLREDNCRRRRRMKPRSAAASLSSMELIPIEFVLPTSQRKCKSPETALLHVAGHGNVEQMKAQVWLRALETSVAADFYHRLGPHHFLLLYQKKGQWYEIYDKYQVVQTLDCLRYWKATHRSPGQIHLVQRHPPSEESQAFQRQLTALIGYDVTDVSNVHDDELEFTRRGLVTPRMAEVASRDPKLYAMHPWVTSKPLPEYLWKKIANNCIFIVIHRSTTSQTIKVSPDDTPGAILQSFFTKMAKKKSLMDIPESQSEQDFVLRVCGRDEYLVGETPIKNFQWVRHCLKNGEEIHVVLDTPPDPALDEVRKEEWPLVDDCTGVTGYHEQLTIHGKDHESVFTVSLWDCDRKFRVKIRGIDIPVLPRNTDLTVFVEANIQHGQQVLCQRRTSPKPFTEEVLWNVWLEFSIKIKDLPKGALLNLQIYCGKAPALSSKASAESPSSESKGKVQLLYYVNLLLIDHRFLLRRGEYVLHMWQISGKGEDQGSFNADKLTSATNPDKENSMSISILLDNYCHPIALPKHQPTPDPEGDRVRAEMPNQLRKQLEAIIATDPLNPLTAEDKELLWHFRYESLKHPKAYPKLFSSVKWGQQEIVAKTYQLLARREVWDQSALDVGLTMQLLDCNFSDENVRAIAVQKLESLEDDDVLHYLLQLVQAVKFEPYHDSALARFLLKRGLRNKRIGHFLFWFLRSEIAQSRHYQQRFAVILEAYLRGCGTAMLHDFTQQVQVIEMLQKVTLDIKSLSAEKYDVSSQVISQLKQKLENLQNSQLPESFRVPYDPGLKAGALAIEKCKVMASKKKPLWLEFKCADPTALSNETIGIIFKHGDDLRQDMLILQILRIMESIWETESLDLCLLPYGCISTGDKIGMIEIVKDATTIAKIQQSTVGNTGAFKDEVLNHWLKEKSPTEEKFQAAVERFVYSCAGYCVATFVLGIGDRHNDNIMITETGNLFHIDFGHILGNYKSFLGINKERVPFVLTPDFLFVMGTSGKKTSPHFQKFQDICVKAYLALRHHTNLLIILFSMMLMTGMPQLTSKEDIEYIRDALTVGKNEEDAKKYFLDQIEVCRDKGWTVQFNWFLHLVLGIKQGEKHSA

Row | Structure (SMILES) | Kd (PIK3Cδ_h) | IC50 [1] | melting point | Kd (MTOR_h) | Kd (PIK3Cα_h) | IC50 [2] | Kd (PIK3Cγ_h) | Kd (PIK3Cβ_h) | IC50 ([1]; Homo sapiens, PC-3, 1 h) | IC50 ([2]; Homo sapiens, PC-3, 1 h)
1 | CN(C)CCNC(=O)c1cc(C2CCCN2c2ccnc(F)c2)c2nc(N3CCOCC3)cnc2c1 (single isomer, unassigned) [Compound 38] | 1410 nM | 59 nM | 177 °C | > 30200 nM | 11500 nM | 11 nM | 20900 nM | 8 nM |  | 
2 | CN(C)C(=O)c1cc(C2CCCN2c2cc(Cl)ncn2)c2nc(N3CCOCC3)cnc2c1 (stereo not shown) [Compound 1] | 1410 nM |  | 80 °C | > 30200 nM | 16600 nM |  | > 30200 nM | 42 nM | > 513 nM | > 513 nM
3 | Cc1cc(N2CCCC2c2cc(C(=O)N(C)C)cc3ncc(N4CCOCC4)nc23)cc(C)n1 (stereo not shown) [Compound 2] | 5890 nM |  | 138 °C | > 30200 nM | > 30200 nM |  | 20900 nM | 162 nM | > 513 nM | > 513 nM
4 | Cc1cc(N2CCCC2c2cc(C(=O)N(C)C)cc3ncc(N4CCOCC4)nc23)nc(C)n1 (stereo not shown) [Compound 3] | 25100 nM |  | 186 °C | > 30200 nM | > 30200 nM |  | > 30200 nM | 2040 nM | > 513 nM | > 513 nM
5 | Cc1nccc(N2CCCC2c2cc(C(=O)N(C)C)cc3ncc(N4CCOCC4)nc23)n1 (stereo not shown) [Compound 4] | 22400 nM |  | 110 °C | > 30200 nM | 28800 nM |  | > 30200 nM | 1550 nM | > 513 nM | > 513 nM
6 | Cc1cc(C)nc(N2CCCC2c2cc(C(=O)N(C)C)cc3ncc(N4CCOCC4)nc23)n1 (stereo not shown) [Compound 5] | 832 nM |  | 100 °C | > 30200 nM | 5370 nM |  | 26900 nM | 22 nM | 417 nM | > 513 nM
7 | COc1ncc(NC(C)c2cc(C(=O)N(C)C)cc3ncc(N4CCOCC4)nc23)cc1C(F)(F)F (stereo not shown) [Compound 24] | 8320 nM |  | 80 °C | > 30200 nM | > 30200 nM |  | > 30200 nM | 589 nM | > 513 nM | > 513 nM
8 | CC(Nc1cncc(Cl)n1)c1cc(C(=O)N(C)C)cc2ncc(N3CCOCC3)nc12 (stereo not shown) [Compound 25] | 1320 nM |  | 225 °C | > 30200 nM | 16200 nM |  | 28800 nM | 21 nM | 468 nM | > 513 nM
9 | COc1ncc(F)cc1NC(C)c1cc(C(=O)N(C)C)cc2ncc(N3CCOCC3)nc12 (stereo not shown) [Compound 26] | 661 nM |  | 80 °C | > 30200 nM | 5010 nM |  | > 30200 nM | 15 nM | 191 nM | > 513 nM
10 | Cc1ccncc1CNc1cc(C(=O)NCCO)cc2ncc(N3CCOCC3)nc12 [Compound 28] | 15500 nM |  | 244 °C | 30900 nM | 16200 nM |  | 25700 nM | 1260 nM | > 513 nM | > 513 nM
11 | CN(C)CCNC(=O)c1cc(C2CCCN2c2cncc(F)c2)c2nc(N3CCOCC3)cnc2c1 (stereo not shown) [Compound 36] | 295 nM |  | 206 °C | > 30200 nM | 1700 nM |  | 3390 nM | 0.1 nM | 4 nM | 5 nM
12 | O=C(NCCO)c1cc(C2CCCN2c2cncc(F)c2)c2nc(N3CCOCC3)cnc2c1 (stereo not shown) [Compound 43] | 166 nM |  | 191 °C | 11500 nM | 447 nM |  | 1000 nM | 3 nM | 40 nM | ~2 nM
13 | O=C(c1cc(C2CCCN2c2cncc(F)c2)c2nc(N3CCOCC3)cnc2c1)N1CC2(C1)CS(=O)(=O)C2 (stereo not shown) [Compound 44] | 240 nM |  | 130 °C | 31600 nM | 575 nM |  | 4070 nM | 2 nM | 30 nM | 49 nM
14 | CNCCNC(=O)c1cc(C2CCCN2c2ccnc(Cl)c2)c2nc(N3CCOCC3)cnc2c1 (stereo not shown) [Compound 48] | 372 nM |  | 80 °C | > 30200 nM | 10000 nM |  | 18200 nM | 2 nM | > 513 nM | > 513 nM
